Patent US20250282799A1, “SUBSTITUTED PYRIDO[4,3-d]PYRIMIDINES AS KRAS MODULATORS” (Alterome Therapeutics, Inc., priority 2023, published 2025)

Assays:
[1] = test system: KRAS G12V dependent lung adenocarcinoma cell line, NCI-H441; test: Cellular pERK (Thr202/Tyr204) FRET/HTRF assay; format: cell-based; conditions: Homo sapiens
Summary of the method: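 NCI-H441 cells (KRAS G12V) were seeded and grown overnight at 37 °C, 5% CO2, then treated with compound in DMSO for 1 hr. Lysates were probed with a Eu3+-cryptate/d2 antibody sandwich against pERK1/2 Thr202/Tyr204 and read by HTRF at 665 nm; IC50 from curve fitting.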

[2] = Pharmacokinetic evaluation, single dosing (oral and intravenous) in rats; format: in vivo, male Sprague-Dawley rats; parameters: unit not given here; conditions: rat, plasma
Protocol: Pharmacokinetic profile for test compound was measured by single dosing in male Sprague-Dawley rats. Animal weights were typically over 200 grams, and animals were allowed to acclimate to their new environment for at least 3 days prior to the initiation of any studies. One set of animals was dosed intravenous with test compound, 2 mg/kg in 20% PEG400, 10% HS-15 Solutol, 70% 50 mM citrate buffer (pH 4.0). Intravenous dosing solution concentration was 1.0 mg/mL. Time of blood sampling was 5 minutes, 15 minutes, 30 minutes, 1 hour, 2 hours, 4 hours, 8 hours, and 24 hours following intravenous dosing. Another set of animals was dosed orally with test compound, 30 mg/kg in 20% PEG400, 10% HS-15 Solutol, 70% 50 mM citrate buffer (pH 4.0). Oral dosing solution concentration was 3.0 mg/mL. Time of blood sampling was 15 minutes, 30 minutes, 1 hour, 2 hours, 4 hours, 8 hours, and 24 hours following oral dosing. Blood samples (˜0.2 mL/sample) were collected via jugular vein and placed in tubes containing Heparin-Na. The blood samples in tubes were mixed and then placed on wet ice prior to centrifugation for plasma. The blood samples were centrifuged at 4000 g for 5 minutes at 4° C. to obtain plasma. The obtained plasma was separated and stored frozen at approximately −80° C.
All the plasma samples were analyzed using a Shimadzu (DGU-405) HPLC with an API 6500+MS/MS system following the manufacturer's instructions. All the analytes were detected with positive-mode electrospray ionization (ES+). A standard curve for each test compound was generated and used to measure test compound concentrations in the rat plasma samples. Based on the time course sampling, an area under the curve (AUC) was calculated for the oral group and intravenous group. The percentage of rat bioavailability is calculated based on the equation shown below.
where F is bioavailability, AUCPO is area under curve of oral dosing, AUCIV is area under curve of intravenous dosing, DoseIV is the intravenous dose and DosePO is the oral dose. The oral dosing for the experiments presented in Table 5 was performed at 10 mg/kg unless noted otherwise.

[3] = NCI-H441, pERK HTRF, NCI-H441 cells (KRAS G12V)
[4] = NCI-H441, cellular pERK (Thr202/Tyr204) HTRF, NCI-H441 cells

Structure (SMILES)	IC50 [1, 3]	IV (dose 2 mg/kg) (AUC/D) (h*mg/mL) [2]	PO (AUC/D) (h*mg/mL), dose 30 mg/kg [2]	PO (dose 10 mg/kg) (AUC/D) (h*mg/mL) [2]	IC50 [1, 4]
[2H]C([2H])(Oc1nc(N2CCCC[C@H]3[C@H](F)[C@H]32)c2cnc(-c3cc(O)cc4ccc(F)c(C#C)c34)c(F)c2n1)[C@@]12CCCN1C[C@H](F)C2 [Example 216, 5-ethynyl-6-fluoro-4-(8-fluoro-4-((1S,7R,8S)-8-fluoro-2-azabicyclo[5.1.0]octan-2-yl)-2-(((2R,7aS)-2-fluorotetrahydro-1H-pyrrolizin-7a(5H)-yl)methoxy-d2)pyrido[4,3-d]pyrimidin-7-yl)naphthalen-2-ol]		96		0.0	< 50 nM
[2H]C([2H])(Oc1nc(N2CCOC[C@H]3[C@H](F)[C@H]32)c2cnc(-c3cc(O)cc4ccc(F)c(C#C)c34)c(F)c2n1)[C@@]12CCCN1C[C@H](F)C2 [Example 217, 5-Ethynyl-6-fluoro-4-(8-fluoro-4-((1S,7S,8S)-8-fluoro-5-oxa-2-azabicyclo[5.1.0]octan-2-yl)-2-(((2R,7aS)-2-fluorotetrahydro-1H-pyrrolizin-7a(5H)-yl)methoxy-d2)pyrido[4,3-d]pyrimidin-7-yl)naphthalen-2-ol]		143	0.5		< 50 nM
[2H]C([2H])(Oc1nc(N2CCOC[C@H]3[C@H](F)[C@H]32)c2cnc(-c3cc(O)cc4ccc(Cl)c(C#C)c34)c(F)c2n1)[C@@]12CCCN1C[C@H](F)C2 [Example 260, 6-chloro-5-ethynyl-4-(8-fluoro-4-((1S,7S,8S)-8-fluoro-5-oxa-2-azabicyclo[5.1.0]octan-2-yl)-2-(((2R,7aS)-2-fluorotetrahydro-1H-pyrrolizin-7a(5H)-yl)methoxy-d2)pyrido[4,3-d]pyrimidin-7-yl)naphthalen-2-ol]		129		0.4	< 50 nM

Continued, values first:

IC50 [1, 3]	IV (dose 2 mg/kg) (AUC/D) (h*mg/mL) [2]	PO (AUC/D) (h*mg/mL), dose 30 mg/kg [2]	PO (dose 10 mg/kg) (AUC/D) (h*mg/mL) [2]	IC50 [1, 4]	Structure (SMILES)
< 50 nM	1086	352			[2H]C([2H])([2H])Oc1c(F)ccc2cc(N)cc(-c3ncc4c(N5CCOC[C@H]6[C@H](F)[C@H]65)nc(OC([2H])([2H])[C@@]56CCCN5C[C@H](F)C6)nc4c3F)c12 [Example 90, 6-Fluoro-4-(8-fluoro-4-((1S,7S,8S)-8-fluoro-5-oxa-2-azabicyclo[5.1.0]octan-2-yl)-2-(((2R,7aS)-2-fluorotetrahydro-1H-pyrrolizin-7a(5H)-yl)methoxy-d2)pyrido[4,3-d]pyrimidin-7-yl)-5-(methoxy-d3)naphthalen-2-amine]
< 50 nM	609		142		[2H]C([2H])([2H])Oc1c(F)ccc2cc(N)cc(-c3ncc4c(N5CCCO[C@H]6[C@H](F)[C@H]65)nc(OC([2H])([2H])[C@@]56CCCN5C[C@H](F)C6)nc4c3F)c12 [Example 91, 6-Fluoro-4-(8-fluoro-4-((1R,7S,8R)-8-fluoro-2-oxa-6-azabicyclo[5.1.0]octan-6-yl)-2-(((2R,7aS)-2-fluorotetrahydro-1H-pyrrolizin-7a(5H)-yl)methoxy-d2)pyrido[4,3-d]pyrimidin-7-yl)-5-(methoxy-d′3) naphthalen-2-amine]
	1066		97	< 50 nM	[2H]C([2H])(Oc1nc(N2CCOC[C@H]3[C@H](F)[C@H]32)c2cnc(-c3cc(N)cc4ccc(Cl)c(C#C)c34)c(F)c2n1)[C@@]12CCCN1C[C@H](F)C2 [Example 267, 6-Chloro-5-ethynyl-4-(8-fluoro-4-((1S,7S,8S)-8-fluoro-5-oxa-2-azabicyclo[5.1.0]octan-2-yl)-2-(((2R,7aS)-2-fluorotetrahydro-1H-pyrrolizin-7a(5H)-yl)methoxy-d2)pyrido[4,3-d]pyrimidin-7-yl)naphthalen-2-amine]
